Literature values as cited in patent US20150275270A1, “COMPOSITIONS AND METHODS FOR THE ANALYSIS OF DEGRADED NUCLEIC ACIDS” (ALTHEADX, INC., priority 2005, published 2015).

Conditions: clinical studies / post-marketing reports

Row | SMILES | drug-induced hepatotoxicity (clinical reports)
1 | Cc1c(C)c2c(c(C)c1O)CCC(C)(COc1ccc(CC3SC(=O)NC3=O)cc1)O2 (stereo not drawn) [Troglitazone, troglitazone] | severe idiosyncratic hepatocellular injury
2 | CCc1ccc(CCOc2ccc(CC3SC(=O)NC3=O)cc2)nc1 (stereo not drawn) [pioglitazone] | no evidence of drug-induced hepatotoxicity
3 | CN(CCOc1ccc(CC2SC(=O)NC2=O)cc1)c1ccccn1 (stereo not drawn) [rosiglitazone] | no evidence of drug-induced hepatotoxicity
